Experimental data published in PubChem BioAssay AID328 (DTP/NCI, 2004).
Several values for one entry are separate records, joined by “and”; a condition that tells them apart may be missing. Equal entries are not always repeated. Toxic doses and inconclusive results are not listed. How the source made its calls: active means survival T/C of 150% or more; inactive means T/C below 125% in these data.

Tested on: BDF1 mice, P388 leukemia ip, median survival T/C
Assay: NCI In Vivo Anticancer Drug Screen. Data for tumor model P388 Leukemia (intraperitoneal) in B6D2F1 (BDF1) mice
Details: endpoint: median survival time, higher = longer survival
Procedure, shortened: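 In tumour-bearing mice, survival after compound treatment is set against the vehicle group and given as a quotient.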

[1] = dose: 100.0 mg/kg/injection, schedule: Q04DX003 (ip), vehicle: saline sonified
[2] = dose: 200.0 mg/kg/injection, schedule: Q04DX003 (ip), vehicle: saline sonified
[3] = dose: 100.0 mg/kg/injection, schedule: Q01DX001 (ip), vehicle: Klucel (hydroxypropylcellulose) (HPC)
[4] = dose: 200.0 mg/kg/injection, schedule: Q01DX001 (ip), vehicle: Klucel (hydroxypropylcellulose) (HPC)
[5] = dose: 400.0 mg/kg/injection, schedule: Q01DX001 (ip), vehicle: Klucel (hydroxypropylcellulose) (HPC)
[6] = dose: 50.0 mg/kg/injection, schedule: Q01DX009 (ip), vehicle: other
[7] = dose: 50.0 mg/kg/injection, schedule: Q01DX009 (ip), vehicle: saline with Tween-80
[8] = dose: 100.0 mg/kg/injection, schedule: Q01DX009 (ip), vehicle: saline with Tween-80
[9] = dose: 200.0 mg/kg/injection, schedule: Q01DX009 (ip), vehicle: saline with Tween-80
[10] = dose: 100.0 mg/kg/injection, schedule: Q01DX009 (ip), vehicle: saline
[11] = dose: 200.0 mg/kg/injection, schedule: Q01DX009 (ip), vehicle: saline
[12] = dose: 400.0 mg/kg/injection, schedule: Q01DX009 (ip), vehicle: saline
[13] = dose: 100.0 mg/kg/injection, schedule: Q01DX009 (ip), vehicle: Klucel (hydroxypropylcellulose) (HPC)
[14] = dose: 100.0 mg/kg/injection, schedule: Q04DX003 (ip), vehicle: Klucel (hydroxypropylcellulose) (HPC)
[15] = dose: 200.0 mg/kg/injection, schedule: Q01DX009 (ip), vehicle: Klucel (hydroxypropylcellulose) (HPC)
[16] = dose: 200.0 mg/kg/injection, schedule: Q04DX003 (ip), vehicle: Klucel (hydroxypropylcellulose) (HPC)
[17] = dose: 400.0 mg/kg/injection, schedule: Q01DX009 (ip), vehicle: Klucel (hydroxypropylcellulose) (HPC)
[18] = dose: 400.0 mg/kg/injection, schedule: Q04DX003 (ip), vehicle: Klucel (hydroxypropylcellulose) (HPC)
[19] = dose: 100.0 mg/kg/injection, schedule: Q04DX003 (ip), vehicle: saline with Tween-80

Measured: T/C

CN(C)CCCN1CCC2(CC[C@H]3CCCC[C@@H]3C2)CC1
inactive: dose: 18.75 mg/kg/injection, schedule: Q04DX003 (ip), vehicle: saline 100 % of control | dose: 37.5 mg/kg/injection, schedule: Q04DX003 (ip), vehicle: saline 109 % of control | dose: 75.0 mg/kg/injection, schedule: Q04DX003 (ip), vehicle: saline 113 % of control

CC(CCc1cccc2ccccc12)(C(=O)O)C(=O)O
inactive: [1] 100 % of control | [2] 91 % of control

C=CCN(CC=C)c1ccc(N(CC)CC)cc1
inactive: [3] 87 % of control | [4] 95 % of control | [5] 100 % of control

Cc1ccc(N2CCOC2=O)cc1N1CCOC1=O
inactive: dose: 25.0 mg/kg/injection, schedule: Q01DX009 (ip), vehicle: other 100 % of control | dose: 25.0 mg/kg/injection, schedule: Q04DX003 (ip), vehicle: other 109 % of control | [6] 100 % of control | dose: 50.0 mg/kg/injection, schedule: Q04DX003 (ip), vehicle: other 100 % of control | dose: 100.0 mg/kg/injection, schedule: Q01DX009 (ip), vehicle: other 109 % of control | dose: 100.0 mg/kg/injection, schedule: Q04DX003 (ip), vehicle: other 100 % of control

CCOC(=O)C(Cc1ccc(N(CCCl)CCCl)cc1)NC(=O)C(Cc1ccc([N+](=O)[O-])cc1)NC(C)=O (centres undefined)
inactive: dose: 5.0 mg/kg/injection, schedule: Q04DX003 (ip), vehicle: other 105 % of control | dose: 10.0 mg/kg/injection, schedule: Q04DX003 (ip), vehicle: other 96 % of control | dose: 20.0 mg/kg/injection, schedule: Q04DX003 (ip), vehicle: other 99 % of control | dose: 40.0 mg/kg/injection, schedule: Q04DX003 (ip), vehicle: other 99 % of control

CCOC(=O)C1=C(C)NC(C)=C(C(=O)OCC)C1c1ccccc1Cl
inactive: dose: 28.75 mg/kg/injection, schedule: Q04DX003 (ip), vehicle: Klucel (hydroxypropylcellulose) (HPC) 95 % of control | dose: 57.5 mg/kg/injection, schedule: Q04DX003 (ip), vehicle: Klucel (hydroxypropylcellulose) (HPC) 104 % of control | dose: 75.0 mg/kg/injection, schedule: Q01DX009 (ip), vehicle: Klucel (hydroxypropylcellulose) (HPC) 90 % of control | dose: 115.0 mg/kg/injection, schedule: Q01DX009 (ip), vehicle: Klucel (hydroxypropylcellulose) (HPC) 86 % of control | dose: 115.0 mg/kg/injection, schedule: Q04DX003 (ip), vehicle: Klucel (hydroxypropylcellulose) (HPC) 100 % of control | dose: 170.0 mg/kg/injection, schedule: Q01DX001 (ip), vehicle: Klucel (hydroxypropylcellulose) (HPC) 100 % of control | dose: 260.0 mg/kg/injection, schedule: Q01DX001 (ip), vehicle: Klucel (hydroxypropylcellulose) (HPC) 100 % of control

CN(C)c1ccc(/C=C\c2ccnc3ccc(-c4ccccc4)cc23)cc1
inactive: [7] 94 % of control | [8] 94 % of control | [9] 94 % of control

OC(CI)C(O)C(O)C(O)CI (centres undefined)
inactive: [8] 108 % of control | [10] 102 % of control | [9] 102 % of control | [11] 109 % of control | dose: 400.0 mg/kg/injection, schedule: Q01DX009 (ip), vehicle: saline with Tween-80 122 % of control | [12] 109 % of control | dose: 600.0 mg/kg/injection, schedule: Q01DX009 (ip), vehicle: saline 118 % of control
active: dose: 300.0 mg/kg/injection, schedule: Q01DX009 (ip), vehicle: saline with Tween-80 150 % of control

C#CCOC(=O)NCC
inactive: [10] 100 % of control | dose: 100.0 mg/kg/injection, schedule: Q04DX003 (ip), vehicle: saline 100 % of control | [11] 115 % of control | dose: 200.0 mg/kg/injection, schedule: Q04DX003 (ip), vehicle: saline 100 % of control | [12] 115 % of control | dose: 400.0 mg/kg/injection, schedule: Q04DX003 (ip), vehicle: saline 104 % of control

CC1CC(C)(C)N=C(CCC[N+](=O)[O-])O1 (centres undefined)
inactive: dose: 50.0 mg/kg/injection, schedule: Q04DX003 (ip), vehicle: saline sonified 105 % of control | [1] 105 % of control | [2] 105 % of control

Cc1ccc(S(=O)(=O)/N=C/NN(C)C)cc1
inactive: [7] 97 % of control | [8] 112 % of control | [9] 98 % of control

CCOc1ccc2nc(S(N)(=O)=O)sc2c1
inactive: [13] 114 % of control | [14] 104 % of control | [15] 114 % of control | [16] 104 % of control | [17] 109 % of control | [18] 95 % of control

CCCSCCSCCC
inactive: dose: 25.0 mg/kg/injection, schedule: Q04DX003 (ip), vehicle: saline with Tween-80 100 % of control | dose: 50.0 mg/kg/injection, schedule: Q04DX003 (ip), vehicle: saline with Tween-80 109 % of control | [19] 113 % of control

CCOC(=O)C1c2cccc(O)c2C=CN1C(C)=O (centres undefined)
inactive: [19] 91 % of control | dose: 200.0 mg/kg/injection, schedule: Q04DX003 (ip), vehicle: saline with Tween-80 91 % of control | dose: 400.0 mg/kg/injection, schedule: Q04DX003 (ip), vehicle: saline with Tween-80 95 % of control

C=C1C(=O)O[C@H]2C1[C@H](OC(=O)/C(C)=C\COC(C)=O)C[C@]1(CO1)[C@@H]1[C@H](O)[C@H]3O[C@@]3(C)[C@@H]12 (some centres undefined)
inactive: dose: 3.12 mg/kg/injection, schedule: Q01DX009 (ip), vehicle: other 103 % of control | dose: 6.25 mg/kg/injection, schedule: Q01DX009 (ip), vehicle: other 96 % of control and 120 % of control | dose: 12.5 mg/kg/injection, schedule: Q01DX009 (ip), vehicle: other 101 % of control
active: [6] 173 % of control

COc1ccc2nc(NCN3C(=O)c4ccccc4C3=O)sc2c1
inactive: [3] 104 % of control | [13] 109 % of control | [14] 100 % of control | [4] 100 % of control | [15] 104 % of control | [16] 100 % of control | [5] 95 % of control | [17] 104 % of control | [18] 100 % of control

O=C(O)/C=C/c1ccccc1C(=O)O
inactive: dose: 100.0 mg/kg/injection, schedule: Q01DX001 (ip), vehicle: saline 100 % of control | dose: 200.0 mg/kg/injection, schedule: Q01DX001 (ip), vehicle: saline 100 % of control | dose: 400.0 mg/kg/injection, schedule: Q01DX001 (ip), vehicle: saline 109 % of control

COc1ccc(-n2c(=O)c(N=Nc3ccccc3OC)c(O)n(-c3ccccc3C)c2=S)cc1
inactive: [3] 111 % of control | [4] 100 % of control | [5] 88 % of control

NC(=O)Oc1cccc(OC(N)=O)c1
inactive: dose: 12.5 mg/kg/injection, schedule: Q04DX003 (ip), vehicle: water 106 % of control | dose: 25.0 mg/kg/injection, schedule: Q04DX003 (ip), vehicle: water 106 % of control | dose: 50.0 mg/kg/injection, schedule: Q04DX003 (ip), vehicle: water 111 % of control | dose: 100.0 mg/kg/injection, schedule: Q04DX003 (ip), vehicle: water 106 % of control

CCOC(=O)NC1CC2(C=CN1C(=O)OCC)CCCCC2 (centres undefined)
inactive: dose: 37.5 mg/kg/injection, schedule: Q04DX003 (ip), vehicle: Klucel (hydroxypropylcellulose) (HPC) 113 % of control | dose: 75.0 mg/kg/injection, schedule: Q04DX003 (ip), vehicle: Klucel (hydroxypropylcellulose) (HPC) 118 % of control | dose: 150.0 mg/kg/injection, schedule: Q04DX003 (ip), vehicle: Klucel (hydroxypropylcellulose) (HPC) 112 % of control

FC(F)(F)/C([S-])=C(/[S-])C(F)(F)F.FC(F)(F)/C([S-])=C(/[S-])C(F)(F)F.FC(F)(F)/C([S-])=C(/[S-])C(F)(F)F.FC(F)(F)/C([S-])=C(/[S-])C(F)(F)F.[Fe+3].[Fe+3]
inactive: dose: 50.0 mg/kg/injection, schedule: Q01DX001 (ip), vehicle: saline with Tween-80 100 % of control | dose: 100.0 mg/kg/injection, schedule: Q01DX001 (ip), vehicle: saline with Tween-80 104 % of control | dose: 200.0 mg/kg/injection, schedule: Q01DX001 (ip), vehicle: saline with Tween-80 104 % of control
